Source: patent publication US20240285723A1, “COMBINATION COMPOSITIONS FOR THE TREATMENT OF PATHOGEN INFECTIONS AND ASSOCIATED COMPLICATIONS” (priority 2021, published 2024)
Where no end group is shown, it is not given here.

Tests used:
[1] = tested on: LPS-injected mice; assay: LPS-induced septic shock mouse model: survival and murine sepsis score (MSS); type: in vivo; conditions: for disease progression (MSS), compound alone / survival (MSS<3), compound alone: BCP 25 mg/kg or pregnenolone 10 mg/kg i.p. every 12 hrs from 24 h before LPS, n=7
Description: Male wild type 8-10 weeks old mice of inbred strain C57BL/6J-RCC were obtained from Envigo Ltd. All experiments were in accordance and with the approval of the institutional animal care and use committee of Tel-Aviv University for these experiments (permit number 01-20-022). The mice were divided into treatment groups 24 hours before LPS administration. All treatments were administered intraperitoneally (IP). OGP was administered at the indicated doses only twice, 24 hrs before LPS and right before the LPS at a dose of 0.5, 5 or 15 μg/kg. Olorinab was administered at 0.33, 1, or 5 mg/kg twice a day starting 24 hours before LPS. DHEA was injected once a day at a dose of 30 mg/kg, starting 24 hr before LPS injection. β-Caryophyllene (BCP or BCP, used herein interchangeably) and Pregnenolone were injected every 12 hours starting 24 h before the LPS injection. A single IP injection of LPS was administered at 25 μg/gr dose. This study had 2 control groups as indicated in the experiments below. One that received PBS instead of the LPS injection (‘PBS’), and one that received PBS instead of the treatments (CB2 agonist or steroid) before the LPS injection (‘LPS’). For humane reasons murine sepsis score (MSS) was used as a surrogate for survival (Mai et al. Intensive Care Med Exp, 2018 Jul. 27; 6(1):20. doi: 10.1186/s40635-018-0184-3). A low MSS score (0-2) served as a surrogate for survival while mice that reached the score 3 were defined as critically ill and were euthanized.
Statistical analyses—For survival experiments, Gehan-Breslow-Wilcoxon test was used for multiple groups comparison. For disease progression Dunnett's multiple comparisons test was used. Differences between groups were considered significant when P<0.05.
A dose response experiment was conducted to test the potential effect of 5aa-OGP in the sepsis model (FIG. 1A). A single injection of 5aa-OGP was administered i.p. at 3 different doses, 0.5 μg/kg, 5 μg/kg and 15 μg/kg, 24 hours prior to the LPS injection; these concentrations were chosen based on the previous works in the lab.
In a separate experiment, mice received a single i.p. injection of the optimal dose of 5aa-OGP (5 μg/kg) and 24 hours later were intraperitoneal (i.p) injected with a lethal dose of LPS. Control mice received a single PBS injection 24 hours prior to LPS injection.
In order to test the therapeutic potential of another CB2 agonist, olorinab was tested in improving survival rate in a mouse model of septic shock induced by LPS injection. Olorinab was administered i.p. 24 hours prior to LPS injection followed by twice-daily injections of olorinab.
The combinations DHEA+olorinab and DHEA+5aa-OGP were tested versus each compound alone and versus vehicle only (no treatment) in LPS-injected mice. The mice received the first dose of treatment 24 hr before LPS injection in the treated groups. All the injections were given i.p., olorinab doses were administered twice a day, DHEA and 5aa-OGP were administered once a day. LPS was given only once.
The combination BCP+Pregnenolone was tested versus each compound alone and versus vehicle only (no treatment) in LPS-injected mice. Mice were pre-treated with ß-Caryophyllene (BCP. 25 mg/kg) and pregnenolone (Preg, 10 mg/kg), separately (FIG. 4A) and in combination 24 and 12 hrs before LPS injection (25 mg/kg) and then every 12 hrs. All the injections were given i.p., twice a day. LPS was given only once. A Murine Septic Score (MSS) was recorded every 12 hours (FIGS. 4A and 4C). Survival (FIGS. 4B and 4D) was defined as MSS<3. * P<0.05, n=7.

[2] = tested on: COVID-19 patients; conditions: COVID-19 patients who did not require oxygen; cited from earlier work
[3] = tested on: T-cells; assay: T-cell subsets in spleen and bone marrow of treated mice; type: in vivo, mouse; conditions: 5 μg/kg/day daily for 5 days; 12-week-old mice
Text: This is likely due to its strong immunosuppressive actions, including a severe weakening of the humoral/acquired immune system. Our proposed approach uses CB2 agonists that have immunomodulatory roles. On one hand, OGP strongly suppresses the innate immune system, exemplified here as inhibition of cytokine expression by activated macrophages (FIG. 6), and suppression of xylene-induced ear edema (FIG. 7). On the other hand, OGP has no suppressive effects on the adaptive/acquired system, exemplified here by the unaffected number of T cell subsets in mice treated with 5aa-OGP (FIG. 7). 12-week-old mice were injected with 5 μg/kg/day 5aa-OGP, 3 mg/kg/day HU910, or with a vehicle control daily for 5 days. The spleen and bone marrow (BM) were analyzed.

[4] = tested on: polymicrobial sepsis; conditions: mice; Oberbeck et al. 2001; cited from earlier work
[5] = tested on: patients with dcSSc or dermatomyositis; conditions: Phase II; dcSSc and dermatomyositis with active skin involvement; cited from earlier work

C=C1CC/C=C(\C)CC[C@@H]2[C@@H]1CC2(C)C [BCP, β-caryophyllene]
disease progression (MSS), compound alone [1]: slight beneficial effect | survival (MSS<3), compound alone [1]: no significant effect

C[C@@H]1C[C@H]2[C@@H]3CCC4=CC(=O)C=C[C@]4(C)[C@@]3(F)[C@@H](O)C[C@]2(C)[C@@]1(O)C(=O)CO [dexamethasone]
mortality, patients who did not require oxygen [2]: significantly increased mortality

CC(C)(C)[C@@H](CO)NC(=O)c1nn(-c2c[n+]([O-])ccn2)c2c1C[C@@H]1C[C@H]21 [olorinab]
survival percentage at 0.33 mg/kg ([1]; 0.33 mg/kg twice daily, i.p.): best survival percentage | survival percentage at 1 mg/kg ([1]; 1 mg/kg twice daily, i.p., p<0.05): best survival percentage | survival of LPS treated mice, different doses ([1]; olorinab 0.33, 1 or 5 mg/kg i.p. twice daily from 24 h before LPS): beneficial effect

YGFGG [5aa-OGP]
effect on T-cells in spleen and bone marrow [3]: did not affect T-cells

C[C@]12CC[C@H](O)CC1=CC[C@@H]1[C@@H]2CC[C@]2(C)C(=O)CC[C@@H]12 [DHEA, Dehydroepiandrosterone]
TNF-α release [4]: reduction | activity of T-cellular immunity [4]: improved activity | survival in septic challenge [4]: increased survival

CCCCCCC(C)(C)c1cc(O)c2c(c1)OC(C)(C)[C@@H]1CC=C(C(=O)O)C[C@@H]21 [Lenabasum]
physician-assessed and patient-reported efficacy outcomes [5]: improvement

CC(=O)[C@H]1CC[C@H]2[C@@H]3CC=C4C[C@@H](O)CC[C@]4(C)[C@H]3CC[C@]12C [Pregnenolone, pregn-5-en-3β-ol-20-one]
disease progression (MSS), compound alone [1]: no significant effect | survival (MSS<3), compound alone [1]: no significant effect
